The source of these data is the Kinase Knowledgebase extract (Sharma et al. 2016).

The target of experiment [1] is PIK3CB (Human) (UniProt P42338). As to the kind of experiment: Assessment of PIK3CB Kinase Activity.
Experiment [2] has as its target PIK3CD (Human) (UniProt O00329). As to the kind of experiment: Assessment of PIK3CD Kinase Activity.
For experiment [3], the target named is PIK3CG (human) (UniProt P48736). As to the kind of experiment: Assessment of PIK3CG Kinase Activity.
The target in experiment [4] is PIK3CA (human) (UniProt P42336). Put plainly: Assessment of PIK3CA Kinase Activity.
PIK3CA (human), sequence (P42336 whole entry, looked up): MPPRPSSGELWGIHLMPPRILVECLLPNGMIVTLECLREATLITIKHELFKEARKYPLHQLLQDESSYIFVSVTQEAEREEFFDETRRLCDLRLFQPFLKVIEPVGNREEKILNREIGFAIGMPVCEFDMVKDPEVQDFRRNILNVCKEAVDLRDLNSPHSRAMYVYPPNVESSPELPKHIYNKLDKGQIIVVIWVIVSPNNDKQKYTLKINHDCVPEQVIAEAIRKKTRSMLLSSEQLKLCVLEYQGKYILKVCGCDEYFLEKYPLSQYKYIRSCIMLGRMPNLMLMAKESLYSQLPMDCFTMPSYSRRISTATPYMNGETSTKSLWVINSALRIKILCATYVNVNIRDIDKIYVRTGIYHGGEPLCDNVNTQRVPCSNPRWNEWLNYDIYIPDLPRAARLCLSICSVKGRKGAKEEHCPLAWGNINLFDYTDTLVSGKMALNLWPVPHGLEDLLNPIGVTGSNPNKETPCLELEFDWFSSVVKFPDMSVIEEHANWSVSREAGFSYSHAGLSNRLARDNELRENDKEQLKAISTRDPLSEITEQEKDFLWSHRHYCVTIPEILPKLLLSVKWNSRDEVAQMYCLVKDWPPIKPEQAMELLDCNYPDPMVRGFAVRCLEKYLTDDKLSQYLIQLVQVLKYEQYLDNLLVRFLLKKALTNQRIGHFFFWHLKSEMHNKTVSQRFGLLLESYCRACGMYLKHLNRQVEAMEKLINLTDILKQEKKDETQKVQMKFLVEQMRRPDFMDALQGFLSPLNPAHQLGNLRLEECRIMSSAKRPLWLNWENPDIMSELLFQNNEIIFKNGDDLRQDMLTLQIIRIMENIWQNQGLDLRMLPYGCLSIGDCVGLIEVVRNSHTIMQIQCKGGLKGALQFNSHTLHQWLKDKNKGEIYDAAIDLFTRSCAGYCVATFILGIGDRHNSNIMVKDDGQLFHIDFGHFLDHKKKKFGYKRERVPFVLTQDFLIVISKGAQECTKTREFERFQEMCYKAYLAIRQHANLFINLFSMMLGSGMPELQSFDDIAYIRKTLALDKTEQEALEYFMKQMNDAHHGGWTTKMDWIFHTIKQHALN

Molecules are shown by their SMILES. Some results are limits rather than exact numbers.

For orientation: IC50 means the concentration that inhibits the measured activity by half. A low value points to greater potency in that assay.

PIK3CD (Human), sequence (O00329 whole entry, looked up): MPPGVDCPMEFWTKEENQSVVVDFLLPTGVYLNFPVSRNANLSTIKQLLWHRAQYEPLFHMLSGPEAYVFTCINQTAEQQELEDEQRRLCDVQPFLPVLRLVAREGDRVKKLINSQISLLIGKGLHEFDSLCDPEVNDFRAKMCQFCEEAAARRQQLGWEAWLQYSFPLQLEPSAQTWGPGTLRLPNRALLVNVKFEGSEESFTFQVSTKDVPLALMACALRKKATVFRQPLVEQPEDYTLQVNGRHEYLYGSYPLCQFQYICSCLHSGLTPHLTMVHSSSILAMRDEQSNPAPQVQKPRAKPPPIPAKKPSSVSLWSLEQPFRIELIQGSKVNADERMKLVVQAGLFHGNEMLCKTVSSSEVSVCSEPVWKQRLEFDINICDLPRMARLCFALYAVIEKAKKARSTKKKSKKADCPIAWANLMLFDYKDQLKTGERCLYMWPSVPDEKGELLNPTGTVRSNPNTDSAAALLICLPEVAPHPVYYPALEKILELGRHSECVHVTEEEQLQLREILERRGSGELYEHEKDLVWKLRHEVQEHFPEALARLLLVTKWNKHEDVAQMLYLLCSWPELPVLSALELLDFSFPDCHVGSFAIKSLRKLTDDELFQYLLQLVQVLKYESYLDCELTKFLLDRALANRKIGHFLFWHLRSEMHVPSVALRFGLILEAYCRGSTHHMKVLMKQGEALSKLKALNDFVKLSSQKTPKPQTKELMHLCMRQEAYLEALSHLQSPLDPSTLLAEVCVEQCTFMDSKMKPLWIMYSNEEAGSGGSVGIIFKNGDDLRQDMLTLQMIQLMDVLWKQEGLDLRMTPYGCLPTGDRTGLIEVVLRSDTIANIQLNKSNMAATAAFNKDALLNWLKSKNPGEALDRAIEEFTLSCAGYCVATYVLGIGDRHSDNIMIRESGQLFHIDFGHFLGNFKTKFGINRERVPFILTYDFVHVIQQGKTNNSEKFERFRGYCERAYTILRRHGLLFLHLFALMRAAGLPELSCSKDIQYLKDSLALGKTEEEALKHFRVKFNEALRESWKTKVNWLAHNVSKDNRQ
PIK3CG (human), sequence (P48736 whole entry, looked up): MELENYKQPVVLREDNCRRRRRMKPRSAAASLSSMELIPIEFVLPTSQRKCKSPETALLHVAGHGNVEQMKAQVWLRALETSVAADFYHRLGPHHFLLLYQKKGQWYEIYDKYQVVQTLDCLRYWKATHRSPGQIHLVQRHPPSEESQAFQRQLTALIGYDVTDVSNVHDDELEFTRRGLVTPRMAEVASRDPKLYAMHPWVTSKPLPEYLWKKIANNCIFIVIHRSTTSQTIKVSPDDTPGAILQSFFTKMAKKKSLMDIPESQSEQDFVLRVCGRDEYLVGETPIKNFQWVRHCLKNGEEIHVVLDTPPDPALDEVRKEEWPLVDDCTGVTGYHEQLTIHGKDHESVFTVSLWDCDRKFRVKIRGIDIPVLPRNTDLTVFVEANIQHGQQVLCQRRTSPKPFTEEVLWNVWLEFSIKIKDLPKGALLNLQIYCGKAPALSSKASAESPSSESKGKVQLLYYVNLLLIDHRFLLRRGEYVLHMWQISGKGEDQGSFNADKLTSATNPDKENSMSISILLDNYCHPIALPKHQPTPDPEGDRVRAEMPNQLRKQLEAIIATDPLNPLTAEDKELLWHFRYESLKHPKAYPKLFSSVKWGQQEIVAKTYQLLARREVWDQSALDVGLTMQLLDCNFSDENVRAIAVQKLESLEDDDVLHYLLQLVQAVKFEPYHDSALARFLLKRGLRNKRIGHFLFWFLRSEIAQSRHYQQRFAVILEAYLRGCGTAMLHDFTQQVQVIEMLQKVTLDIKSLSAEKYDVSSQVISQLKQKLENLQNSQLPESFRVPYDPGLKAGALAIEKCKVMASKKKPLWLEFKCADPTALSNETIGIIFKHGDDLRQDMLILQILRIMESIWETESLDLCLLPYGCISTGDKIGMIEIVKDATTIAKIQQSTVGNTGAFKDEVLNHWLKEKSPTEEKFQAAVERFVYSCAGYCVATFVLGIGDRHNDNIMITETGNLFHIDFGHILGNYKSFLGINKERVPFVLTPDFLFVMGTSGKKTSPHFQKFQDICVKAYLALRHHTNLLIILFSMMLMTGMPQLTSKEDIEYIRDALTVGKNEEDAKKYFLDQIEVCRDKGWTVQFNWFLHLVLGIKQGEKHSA
PIK3CB (Human), sequence (P42338 whole entry, looked up): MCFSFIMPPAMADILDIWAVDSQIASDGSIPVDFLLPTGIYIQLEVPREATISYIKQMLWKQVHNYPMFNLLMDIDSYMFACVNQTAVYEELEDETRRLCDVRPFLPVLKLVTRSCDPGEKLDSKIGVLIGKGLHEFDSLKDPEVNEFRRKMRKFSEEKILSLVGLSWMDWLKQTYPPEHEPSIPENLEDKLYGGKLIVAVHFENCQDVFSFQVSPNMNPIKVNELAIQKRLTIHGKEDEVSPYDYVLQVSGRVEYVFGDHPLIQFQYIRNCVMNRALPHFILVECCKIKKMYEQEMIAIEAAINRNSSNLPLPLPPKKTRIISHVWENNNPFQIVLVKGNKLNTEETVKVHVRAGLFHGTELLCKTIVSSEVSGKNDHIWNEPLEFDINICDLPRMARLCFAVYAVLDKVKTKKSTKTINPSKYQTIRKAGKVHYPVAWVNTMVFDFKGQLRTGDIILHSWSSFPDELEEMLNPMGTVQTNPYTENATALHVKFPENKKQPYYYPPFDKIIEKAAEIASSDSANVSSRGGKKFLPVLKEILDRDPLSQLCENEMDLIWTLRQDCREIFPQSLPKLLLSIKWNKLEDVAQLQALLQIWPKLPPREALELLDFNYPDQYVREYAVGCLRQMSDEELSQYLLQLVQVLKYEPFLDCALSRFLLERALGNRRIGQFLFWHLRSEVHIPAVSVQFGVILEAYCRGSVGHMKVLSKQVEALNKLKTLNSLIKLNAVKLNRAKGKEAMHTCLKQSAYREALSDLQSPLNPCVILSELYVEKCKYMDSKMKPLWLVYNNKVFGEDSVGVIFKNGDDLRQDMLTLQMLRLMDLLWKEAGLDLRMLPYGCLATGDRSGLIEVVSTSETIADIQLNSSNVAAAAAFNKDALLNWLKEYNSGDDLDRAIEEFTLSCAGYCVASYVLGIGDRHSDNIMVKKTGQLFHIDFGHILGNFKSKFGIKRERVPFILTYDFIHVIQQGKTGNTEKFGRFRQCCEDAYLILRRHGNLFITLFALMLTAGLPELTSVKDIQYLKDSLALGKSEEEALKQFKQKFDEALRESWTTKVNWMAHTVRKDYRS

On to `COc1ncc(-c2cccc3cc([C@H](C)Nc4nc(N)ncc4C(N)=O)n(-c4ccccc4)c(=O)c23)cn1`, for which the IC50 in experiment [1] is over 10000 nM; in experiment [2], under 100 nM; in experiment [3] it was under 100 nM; in experiment [4], over 10000 nM.

Turning to `C[C@H](Nc1nc(N)ncc1C#N)c1cc2cccc(-c3cnc4[nH]ccc4c3)c2c(=O)n1-c1ccccc1`, the IC50 in experiment [1] was 100 to 1000 nM; in experiment [2], under 100 nM; in experiment [3] it was under 100 nM; in experiment [4] it was 100 to 1000 nM.

Take `COc1cncc(-c2cccc3cc([C@H](C)Nc4nc(N)ncc4C#N)n(-c4ccccc4)c(=O)c23)c1`: the IC50 in experiment [1] was 100 to 1000 nM; in experiment [2] it was under 100 nM; in experiment [3] it was under 100 nM; in experiment [4], 100 to 1000 nM.

As for `COc1cc(-c2cccc3cc([C@H](C)Nc4nc(N)ncc4-c4ccc(O)c(F)c4)n(-c4ccccc4)c(=O)c23)ccn1`, the IC50 was over 10000 nM in experiment [1], under 100 nM in experiment [2], under 100 nM in experiment [3] and over 10000 nM in experiment [4].

Consider `C[C@H](Nc1cc(Cl)nc(N)n1)c1cc2cccc(Cl)c2c(=O)n1-c1ccccc1`, for which the IC50 in experiment [1] is over 10000 nM; in experiment [2], 100 to 1000 nM; in experiment [3], 100 to 1000 nM; in experiment [4], over 10000 nM.

Take `COc1ncc(-c2cccc3cc([C@H](C)Nc4nc(N)ncc4C(F)(F)F)n(-c4cccc(F)c4)c(=O)c23)cn1`: the IC50 is over 10000 nM in experiment [1], under 100 nM in experiment [2], 100 to 1000 nM in experiment [3] and over 10000 nM in experiment [4].

As to `COc1ncc(-c2cccc3cc([C@H](C)Nc4nc(N)ncc4C#N)n(-c4cccc(F)c4)c(=O)c23)cn1`, the IC50 in experiment [1] was over 10000 nM; in experiment [2], under 100 nM; in experiment [3], under 100 nM; in experiment [4] it was over 10000 nM.

As for `C[C@H](Nc1nc(N)ncc1[N+](=O)[O-])c1cc2cccc(Cl)c2c(=O)n1-c1ccccc1`, the IC50 in experiment [1] is 100 to 1000 nM; in experiment [2], under 100 nM; in experiment [3], under 100 nM; in experiment [4], over 10000 nM.

For `COc1cncc(-c2cccc3cc([C@H](C)Nc4nc(N)ncc4C#N)n(C4CC4)c(=O)c23)c1`, the IC50 in experiment [1] was 100 to 1000 nM; in experiment [2] it was under 100 nM; in experiment [3] it was under 100 nM; in experiment [4], 100 to 1000 nM.

For the compound `COc1ncc(-c2cccc3nc([C@H](C)Nc4nc(N)ncc4C#N)n(-c4ccccc4)c(=O)c23)cn1`, the IC50 in experiment [1] is over 10000 nM; in experiment [2] it was under 100 nM; in experiment [3], under 100 nM; in experiment [4], over 10000 nM.

Take `C[C@H](Nc1nc(N)ncc1-c1csc(S(C)(=O)=O)n1)c1cc2cccc(Cl)c2c(=O)n1-c1ccccc1`: the IC50 in experiment [1], in experiment [2], in experiment [3] and in experiment [4] was under 100 nM throughout.

Turning to `CSc1ncc(-c2cnc(N)nc2N[C@@H](C)c2cc3cccc(Cl)c3c(=O)n2-c2ccccc2)s1`, the IC50 in experiment [1] was 100 to 1000 nM; in experiment [2] it was under 100 nM; in experiment [3], under 100 nM; in experiment [4] it was 100 to 1000 nM.

For the compound `COc1cc(-c2cccc3cc([C@H](C)Nc4nc(N)ncc4C(=O)N(C)OC)n(-c4ccccc4)c(=O)c23)ccn1`, the IC50 in experiment [1] is over 10000 nM; in experiment [2] it was 100 to 1000 nM; in experiment [3] it was under 100 nM; in experiment [4], over 10000 nM.

With `C[C@H](Nc1nc(N)ncc1C#N)c1cc2cccc(-c3ccnnc3)c2c(=O)n1C1CC1`, the IC50 is 100 to 1000 nM in experiment [1], under 100 nM in experiment [2], 100 to 1000 nM in experiment [3] and over 10000 nM in experiment [4].

Take `C[C@H](Nc1nc(N)ncc1C#N)c1cc2cccc(Cl)c2c(=O)n1-c1cccnc1`: the IC50 in experiment [1] was 100 to 1000 nM; in experiment [2], under 100 nM; in experiment [3], under 100 nM; in experiment [4], over 10000 nM.

On to `C[C@H](Nc1nc(N)ncc1C#N)c1cc2cccc(-c3cnc4[nH]ccc4c3)c2c(=O)n1-c1cccc(F)c1`, for which the IC50 in experiment [1] is 100 to 1000 nM; in experiment [2] it was under 100 nM; in experiment [3], under 100 nM; in experiment [4] it was 100 to 1000 nM.
